The supplement of paper PMC9763283

Assays:
Assay in all cases: area under growth-rate inhibition curve (AUC GRI) (dimensionless (GR-based AUC)); higher = less growth inhibition
Details in all cases: exposure time: 72 h; concentrations: 0.1, 1, 10 uM
SKBR3-LTR = test system: SKBR3-LTR
How it was run: (§1)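 Six breast cancer cell line models were used: two triple-negative lines, plus parental HER2+ lines and HER2+ lines resistant to a two-drug combination, each plated at an optimised log-phase density and treated with compound at 0.1, 1 or 10 µM for 72 h. After fixation in 4% paraformaldehyde, nuclei were stained with Hoechst 33342 or DAPI, imaged and counted. Growth was corrected using Day 0 plates, untreated Day 3 plates and DMSO controls, with 2 biological replicates. These corrected counts gave the area under the growth-rate inhibition curve.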

MDA-MB-231 = test system: MDA-MB-231
How it was run: as §1

BT474-P = test system: BT474-P
How it was run: as §1

BT474-LTR = test system: BT474-LTR
How it was run: as §1

MDA-MB-468 = test system: MDA-MB-468
How it was run: as §1

SKBR3-P = test system: SKBR3-P
How it was run: as §1

Row | SMILES | area under growth-rate inhibition curve (SKBR3-LTR) | area under growth-rate inhibition curve (MDA-MB-231) | area under growth-rate inhibition curve (BT474-P) | area under growth-rate inhibition curve (BT474-LTR) | area under growth-rate inhibition curve (MDA-MB-468) | area under growth-rate inhibition curve (SKBR3-P)
1 | CS(=O)(=O)c1ccc(C(=O)Nc2ccc(Cl)c(-c3ccccn3)c2)c(Cl)c1 [Vismodegib (GDC-0449)] | 1.03 | 1.03 | 1.03 | 1.08 | 0.997 | 1.03
2 | Cc1cc(CS(=O)(=O)c2ccccc2)cc(OCc2ccc(CN3CCC[C@@H]3CO)cc2)c1 [PF-543] | 1.07 | 1.01 | 0.97 | 1.01 | 0.99 | 1.03
3 | CC(=O)OC1CC2CCC3C(CCC4(C)C3CC([N+]3(C)CCCCC3)C4OC(C)=O)C2(C)CC1[N+]1(C)CCCCC1.[Br-].[Br-] (stereo unspecified) [Pancuronium dibromide] | 0.978 | 1 | 1.01 | 1.06 | 1.01 | 0.989
4 | O=c1[nH]c2ccccc2n1CCCN1CCC(n2c(=O)[nH]c3cc(Cl)ccc32)CC1 [Domperidone] | 1.04 | 1.01 | 0.993 | 1 | 0.926 | 0.962
5 | OC(CN1CCN(c2cccc(Cl)c2)CC1)C(c1ccccc1)c1ccccc1.[Cl-].[Cl-].[H+].[H+] (stereo unspecified) | 1.05 | 1.04 | 1.04 | 1.07 | 0.981 | 0.982
6 | OCCN1CCN(CCCN2c3ccccc3Sc3ccc(C(F)(F)F)cc32)CC1.[Cl-].[Cl-].[H+].[H+] [Fluphenazine (dihydrochloride)] | 1.05 | 0.991 | 0.966 | 1.06 | 0.953 | 0.975
7 | CN1C2CCC1CC(OC(=O)C(CO)c1ccccc1)C2 (stereo unspecified) [Atropine] | 1.09 | 1.03 | 1.04 | 1.11 | 1.04 | 1.03
8 | O=C(c1ccc(OCCN2CCCCC2)cc1)c1c(-c2ccc(O)cc2)sc2cc(O)ccc12.[Cl-].[H+] [Raloxifene HCl] | 0.996 | 0.957 | 0.82 | 0.931 | 0.931 | 0.996
9 | O=C1CCc2ccc(OCCCCN3CCN(c4cccc(Cl)c4Cl)CC3)cc2N1 [Aripiprazole] | 0.996 | 0.988 | 0.924 | 0.955 | 0.863 | 0.971
10 | CNCC(=O)c1ccc(O)c(O)c1.Cl [Adrenalone HCl] | 1.07 | 0.964 | 1.04 | 1.1 | 1.02 | 1.03
11 | CCCN(CCc1cccs1)[C@H]1CCc2c(O)cccc2C1 [Rotigotine] | 1.08 | 1.03 | 1.05 | 1.08 | 0.992 | 0.984
12 | Nc1ncnc2c1c(I)cn2[C@@H]1O[C@H](CO)[C@H](O)C1O (stereo partly specified) [5-Iodotubercidin] | 0.627 | 0.705 | 0.676 | 0.673 | 0.73 | 0.632
13 | CC/C(=C(\c1ccccc1)c1ccc(OCCN(C)C)cc1)c1ccccc1.O=C(O)CC(O)(CC(=O)O)C(=O)O [Tamoxifen Citrate] | 0.982 | 0.958 | 0.851 | 0.896 | 0.952 | 0.938
14 | CS(=O)(=O)O.Cc1ccc(N(CC2=NCCN2)c2cccc(O)c2)cc1 [Phentolamine Mesylate] | 1.04 | 1.01 | 0.997 | 1.05 | 0.964 | 0.983
15 | CC#C[C@]1(O)CC[C@H]2[C@@H]3CCC4=CC(=O)CCC4=C3[C@@H](c3ccc(N(C)C)cc3)C[C@@]21C [Mifepristone] | 0.998 | 1.03 | 1 | 1.02 | 0.989 | 0.962
16 | CN(C)CCc1c[nH]c2ccc(C[C@H]3COC(=O)N3)cc12 [Zolmitriptan] | 1.07 | 1.06 | 1.06 | 1.09 | 1.05 | 1.03
17 | COc1ccc2c(c1)c(CC(=O)N1CCOCC1)c(C)n2C(=O)c1ccc(Cl)cc1 [BML-190] | 1.03 | 1.01 | 1.03 | 1.08 | 1.01 | 1.02
18 | Oc1ccc([C@H]2COc3cc(O)ccc3C2)cc1 [Equol] | 1.05 | 1.02 | 1.07 | 1.08 | 1.01 | 1.05
19 | COc1ccc(CN(C(=O)C(N)Cc2c(C)cc(C(N)=O)cc2C)C(C)c2ncc(-c3ccccc3)[nH]2)cc1C(=O)O (stereo unspecified) [Eluxadoline] | 1.04 | 1.04 | 1 | 1.04 | 1.04 | 1.02
20 | CNCC(O)c1ccc(O)c(O)c1.[Cl-].[H+] (stereo unspecified) [Epinephrine HCl] | 1.03 | 0.965 | 1.04 | 1.07 | 1 | 1.02
21 | N=C(N)NCCC[C@@H](NC(=O)[C@@H]1CCCN1C(=O)[C@@H]1CSSCCC(=O)N[C@@H](Cc2ccc(O)cc2)C(=O)N[C@@H](Cc2ccccc2)C(=O)N[C@@H](CCC(N)=O)C(=O)N[C@@H](CC(N)=O)C(=O)N1)C(=O)NCC(N)=O [Desmopressin] | 1.01 | 1.01 | 0.995 | 0.999 | 1.02 | 1.02
22 | CCCc1c2oc(C(=O)O)cc(=O)c2cc2c(=O)cc(C(=O)O)n(CC)c12 [Nedocromil] | 1.05 | 1.03 | 1.02 | 1.04 | 1.05 | 1.02
23 | CCN(CC)CC(=O)Nc1c(C)cccc1C [Lidocaine] | 1.08 | 1.03 | 1.04 | 1.11 | 1.05 | 1.03
24 | CS(=O)(=O)[O-].C[NH+]1[C@@H]2CC[C@H]1C[C@@H](OC(c1ccccc1)c1ccccc1)C2 [Benztropine mesylate] | 1.01 | 1.03 | 1.03 | 1.08 | 0.994 | 0.986
25 | N#Cc1ccccc1-c1cc(-c2ccccn2)cn(-c2ccccc2)c1=O [Perampanel] | 1.05 | 1.03 | 1.01 | 1.05 | 1.02 | 1.03
26 | COC(=O)[C@H](c1ccccc1Cl)N1CCc2sccc2C1 [Clopidogrel] | 1.06 | 1 | 1.06 | 1.07 | 1.03 | 1.01

Row | SMILES | area under growth-rate inhibition curve (SKBR3-LTR) | area under growth-rate inhibition curve (MDA-MB-231) | area under growth-rate inhibition curve (BT474-P) | area under growth-rate inhibition curve (BT474-LTR) | area under growth-rate inhibition curve (MDA-MB-468) | area under growth-rate inhibition curve (SKBR3-P)
27 | OCCOCCN1CCN(C(c2ccccc2)c2ccc(Cl)cc2)CC1.[Cl-].[Cl-].[H+].[H+] (stereo unspecified) [Hydroxyzine 2HCl] | 1.05 | 1.01 | 1.08 | 1.1 | 1.04 | 0.995
28 | O=C1CCc2cc(OCCCCc3nnnn3C3CCCCC3)ccc2N1 [Cilostazol] | 1.06 | 1.05 | 1 | 1.04 | 1.03 | 1.03
29 | Br.COc1ccc2c(c1)[C@@]13CCCCC1C(C2)N(C)CC3 (stereo partly specified) [Dextromethorphan hydrobromide] | 1.06 | 1.04 | 1.01 | 1.04 | 1.03 | 1.02
30 | Nc1nc(CC(=O)Nc2ccc(CCNCC(O)c3ccccc3)cc2)cs1 (stereo unspecified) [Mirabegron] | 1.07 | 1.02 | 1.04 | 1.11 | 1.01 | 1.02
31 | CNC(=O)[C@@H](c1ccccc1)N1CCc2cc(OC)c(OC)cc2[C@@H]1CCc1ccc(C(F)(F)F)cc1.Cl [Almorexant HCl] | 0.988 | 1.01 | 0.976 | 1.07 | 1 | 0.977
32 | NC(=O)OCC(COC(N)=O)c1ccccc1 [Felbamate] | 1.05 | 1.04 | 1.01 | 1.02 | 1.03 | 1.03
33 | CC12CC3CC(C)(C1)CC(N)(C3)C2.Cl [Memantine HCl] | 0.989 | 0.997 | 1 | 0.981 | 0.982 | 1.03
34 | O=C(OC1C[N+]2(CCCOc3ccccc3)CCC1CC2)C(O)(c1cccs1)c1cccs1.[Br-] (stereo unspecified) [Aclidinium Bromide] | 1.02 | 1.03 | 1.01 | 0.997 | 1.03 | 0.988
35 | CN1CCN(c2nc3ccccc3nc2Cl)CC1 | 1.01 | 0.97 | 0.997 | 1.01 | 0.986 | 0.987
36 | CCOc1cc([C@@H](CS(C)(=O)=O)N2C(=O)c3cccc(NC(C)=O)c3C2=O)ccc1OC [Apremilast] | 1.05 | 1 | 1.01 | 1.04 | 1.03 | 1.02
37 | O=C(Nc1c(Cl)cncc1Cl)c1ccc(OC(F)F)c(OCC2CC2)c1 [Roflumilast] | 1.07 | 0.966 | 1.03 | 1.05 | 1.04 | 1.01
38 | CN1CC(C(=O)NC2(C)OC3(O)C4CCCN4C(=O)C(Cc4ccccc4)N3C2=O)C=C2c3cccc4[nH]cc(c34)CC21 (stereo unspecified) [ergotamine] | 1.06 | 1.03 | 1.01 | 1.03 | 1 | 1.02
39 | CC(C)N(CCC(c1ccccc1)c1cc(CO)ccc1O)C(C)C (stereo unspecified) | 1.03 | 1.03 | 1.04 | 1.06 | 1.04 | 0.957
40 | CC(CCc1ccc(O)cc1)NCCc1ccc(O)c(O)c1.[Cl-].[H+] (stereo unspecified) [Dobutamine hydrochloride] | 1.07 | 1.02 | 0.992 | 1.01 | 1.04 | 1.03
41 | C[C@]12CC[C@@H]3c4ccc(O)cc4CC[C@H]3[C@@H]1CCC2=O [Estrone] | 1.05 | 1.03 | 1.07 | 1.08 | 1 | 1.02
42 | Cc1ccc(-n2nccn2)c(C(=O)N2CCN(c3nc4cc(Cl)ccc4o3)CCC2C)c1 (stereo unspecified) [Suvorexant (MK-4305)] | 1.04 | 1.02 | 1.02 | 1.05 | 0.955 | 0.995
43 | CC[C@H](c1ccc(O)cc1)[C@@H](CC)c1ccc(O)cc1 [Hexestrol] | 0.993 | 1.02 | 1.05 | 1.06 | 0.973 | 0.989
44 | CCOc1ccc(Cc2cc([C@@H]3O[C@H](CO)[C@@H](O)[C@H](O)[C@H]3O)ccc2Cl)cc1 [Dapagliflozin] | 1.05 | 1.01 | 1.01 | 1.07 | 1.01 | 1.01
45 | CC(C)(C)NCC(O)COc1cccc2c1CCC(=O)N2.[Cl-].[H+] (stereo unspecified) [Carteolol HCl] | 1.1 | 1.04 | 1.05 | 1.11 | 1.03 | 1.04
46 | C[NH+](C)CCCN1c2ccccc2Sc2ccc(Cl)cc21.[Cl-] [Chlorpromazine Hydrochloride] | 1.02 | 0.985 | 1 | 0.991 | 0.989 | 0.994
47 | CC(COc1ccccc1)N(CCCl)Cc1ccccc1.[Cl-].[H+] (stereo unspecified) [Phenoxybenzamine HCl] | 1.01 | 0.984 | 0.997 | 0.978 | 1 | 1.01
48 | CCCC1O[C@@H]2C[C@H]3[C@@H]4CCC5=CC(=O)C=C[C@]5(C)[C@H]4[C@@H](O)C[C@]3(C)[C@]2(C(=O)CO)O1 (stereo partly specified) [Budesonide] | 1.03 | 0.971 | 0.901 | 0.98 | 1.03 | 0.912
49 | Cl.Clc1cccc(Cl)c1NC1=NCCN1 [Clonidine HCl] | 1.06 | 1.05 | 1.08 | 1.16 | 1.07 | 1.04
50 | O=C1Cc2cc(CCN3CCN(c4nsc5ccccc45)CC3)c(Cl)cc2N1.[Cl-].[H+] [Ziprasidone hydrochloride] | 1.05 | 1.03 | 0.993 | 1.06 | 1.03 | 1
51 | S=C=Nc1cccc(NC(=S)NCCCCNC(=S)Nc2cccc(N=C=S)c2)c1 [MRS 2578] | 1.07 | 1.02 | 1.02 | 1.08 | 1.03 | 1.02
